In paper PMC6494957 (Frontiers in Microbiology, 2019):

Experiments:
Type in all cases: cell-based
[1] = system: HEK 293 cell line; experiment: In vitro cytotoxicity, WST-1; conditions: Homo sapiens, HEK293, 10% FBS, read-out: IC50, single agent
Method: Cells were maintained in Dulbecco’s modified Eagle’s medium (DMEM) with 10% fetal bovine serum (FBS) and 1% PenStrep (100 U/mL Penicillin and 100 μg/mL Streptomycin) at 37°C with 5% CO2. Cells were serially passaged at ∼80% confluence ∼ every 4 days. Assays were performed in duplicate in 96 well plates seeded with ∼25,000 cells per well. […] Briefly, the antimicrobials were prepared by performing a twofold serial dilution at 100× of tested concentration in DMSO. Subsequently, a 1 μl aliquot of each concentration was transferred to a sterile 96-well plate containing fresh DMEM with either 10% FBS. After mixing four times, the media aliquots with different concentrations of antimicrobial were transferred to each well of the 96-well plate seeded with cells, using wells containing 1–2% DMSO only as control. To determine the effect of FBS on the cytotoxicity of each compound, DMEM with 40% FBS containing different concentrations of antimicrobial was prepared as described above. After 24 h of exposure, WST-1 reagent (Cell Proliferation Assay reagent, Roche) at a concentration of 10% was added to each well. Absorbance at A450 nm on a Multiskan Ascent 354 Spectrophotometer (Labsystems) was measured after 1 h of incubation. The IC50 value was determined for each compound against each cell line via non-linear regression (three parameters) using GraphPad Prism v6 software.

[2] = system: 18 A. baumannii isolated from human clinical cases; experiment: MIC/MBC, human clinical Acinetobacter isolates; conditions: 18 A. baumannii human clinical isolates
Description: (§1) Escherichia coli ATCC 25922, E. coli ATCC 11229, P. aeruginosa ATCC 27853, P. aeruginosa PA01, Pseudomonas putida ATCC 17428, P. mirabilis ATCC 43071, K. pneumoniae ATCC 13883, A. baumannii ATCC 19606, and A. baumannii ATCC 12457 were used for preliminary susceptibility testing and combination experiments. S. aureus ATCC 29213 and S. pneumoniae ATCC 49619 were used as internal quality controls. A variety of bacterial organisms from both human and canine infections were investigated in this study (n = 119 isolates in total). Twenty-eight clinical Acinetobacter spp. isolates were obtained from cases of human skin and soft tissue infections, including 18 Acinetobacter baumannii and 10 A. calcoaceticus, kindly provided by a person (Institute of Medical and Veterinary Science, South Australia). […] Ninety-one clinical isolates were obtained from cases of canine otitis externa, including seven methicillin-susceptible S. pseudintermedius (MSSP), 13 multidrug- and methicillin-resistant S. pseudintermedius (MRSP) ([Saputra et al., 2017]), 20 beta-haemolytic Streptococcus spp., 30 P. aeruginosa (10 of them resistant to gentamicin and 21 P. mirabilis isolates). These isolates were obtained from the bacterial collection of the national survey of antimicrobial resistance in animals conducted in Australia. Swab samples from dogs with signs of otitis externa were collected by veterinarians and submitted to government, private or university diagnostic laboratories throughout Australia. After routine bacterial identification and the removal of confidential information, the participating veterinary diagnostic laboratories submitted the bacteria and their clinical information to PC2 Laboratories, Australian Centre for Antimicrobial Resistance Ecology, School of Animal and Veterinary Sciences, University of Adelaide, Roseworthy Campus, Roseworthy, SA, Australia, for further study. Thus, animal ethics approval was not required in this study. These organisms were identified to species level using biochemical testing and MALDI-TOF mass spectrometry (Bruker, Preston, VIC, Australia).
(§2) The MIC for ampicillin or gentamicin against each isolate was determined for each test to serve as an internal quality control. The MICs of isolates were determined by visual reading and using an EnSpire Multimode Plate Reader 2300 atA600nm.
(§3) Briefly, 10 μl aliquots from each duplicate well from the MIC assays (starting from the MIC for each compound) were inoculated onto a sheep blood agar (SBA) plate and incubated at 37°C.

[3] = system: 10 A. calcoaceticus isolated from human clinical cases; experiment: MIC/MBC, human clinical Acinetobacter isolates; conditions: 10 A. calcoaceticus human clinical isolates
Description: as §1, §2, §3

Row | SMILES | IC50 [1] | MIC range [2] | MIC ([2]; Acinetobacter baumannii) | MIC range [3] | MIC ([3]; Acinetobacter calcoaceticus)
1 | O=C(O)CN(CCN(CC(=O)O)CC(=O)O)CC(=O)O [EDTA, ethylenediaminetetraacetic acid] | 3.4 mM | – | – | – | –
2 | N=C(N/N=C/c1ccc(Cl)cc1)N/N=C/c1ccc(Cl)cc1 [ROB, robenidine] | – | 8 to 64 µg/mL | 8 µg/mL | 1 to 8 µg/mL | 2 µg/mL
